Test results reported in patent US20220184056A1, “USE OF KDM5A GENE AND ATRX GENE” (SHENZHEN CHIPSCREEN BIOSCIENCES, CO., LTD., priority 2019, published 2022).
Values joined by “and” are separate entries in the source; they are usually repeats but may differ in a detail not shown here. Equal values may be shown once.

Assays:
[1] = test system: relapsed and refractory small cell lung cancer; assay: Phase Ib clinical trial of Chiauranib monotherapy for relapsed and refractory small cell lung cancer, with ctDNA biomarker study (KDM5A, ATRX); format: in vivo, human
Procedure: According to the present invention, a phase Ib clinical trial of using Chiauranib capsules to treat relapsed and refractory small cell lung cancer was carried out, and a concomitant study of efficacy-related biomarkers for 548 tumor-related genes was carried out by detecting and analyzing plasma free tumor DNA (ctDNA). Blood samples were taken from all patients before enrollment, and gene sequences of tumor-related genes were detected, including gene mutations and copy number abnormalities. According to detection results, genes with mutation rates of more than 0.4% were all selected, and progression free survival (PFS) and objective response rates (ORR) of patients were taken as efficacy indicators to analyze the correlation between tumor-related gene abnormalities and the efficacy of Chiauranib.
Test drug: Chiauranib capsules, with specifications of 5 mg and 25 mg. They were manufactured by Shenzhen Chipscreen Biosciences Co., Ltd.
Dosing regimen: the Chiauranib capsules were administered QD at 50 mg/day (not adjusted according to the body weight or the body surface area). The capsules were taken on an empty stomach every morning with water, and the whole capsules were swallowed completely. Continuous administration for 28 days was one treatment cycle, and there was no interval during each treatment cycle.
Number of cases: 25 patients were enrolled.
The test subjects took 50 mg of Chiauranib capsules orally once daily, every 28 days was taken as one treatment cycle, and there was no withdrawal interval during the treatment cycles. All subjects received continuous treatment throughout the trial period until any one of the following occurred (whichever occurred first): progressed disease, intolerable toxicity, death, withdrawal of the informed consent, or loss to follow-up.
Efficacy evaluation: according to the RECIST 1.1 criteria, evaluations were respectively performed in the baseline period and at the end of the 4th week after treatment, and repeated every 8 weeks until a progressive disease occurred. Tumor imageological examinations included CT or MRI of neck, chest, whole abdomen, and pelvic cavity. Other site examinations should be performed as necessary according to clinical indications. The same technologies and methods should be used for baseline of lesions and subsequent evaluation and measurement.
10 mL of peripheral blood was taken before the subjects took Chiauranib for the first time and when a progressive disease occurred, gene sequences of plasma free tumor DNA (ctDNA) and leukocyte extracted DNA (control) were detected, a total of 548 tumor-related genes were included, and detection results included gene mutations and copy number abnormalities, as well as analysis of tumor mutation burden (TMB).
Plasma free tumor DNA (ctDNA) of the evaluated patients was detected and analyzed, and a concomitant study of efficacy-related biomarkers for the 548 tumor-related genes was carried out. According to detection results, genes with mutation rates of more than 0.4% were all selected, and progression free survival (PFS) and objective response (PR) of the patients were taken as efficacy indicators to analyze the correlation between tumor-related gene abnormalities and the efficacy of Chiauranib.

[2] = test system: SCLC; conditions: topotecan combined optimal supportive treatment vs optimal supportive treatment alone; cited from earlier work

Row | Structure (SMILES) | efficacy of monotherapy in the treatment of small cell lung cancer ([1]; 50 mg QD oral) | benefit rate ([1]; 20 evaluated patients, 50 mg QD oral) [%] | ORR ([1]; 20 evaluated patients, 50 mg QD oral, RECIST 1.1) [%] | Non-response (SD + PD), number of patients ([1]; ATRX mutation (6 patients)) [patients] | Non-response (SD + PD), share of patients ([1]; ATRX mutation (6 patients)) [%] | Objective response (PR), number of patients ([1]; ATRX mutation (6 patients)) [patients] | Objective response (PR), share of patients ([1]; ATRX mutation (6 patients)) [%] | Non-response (SD + PD), number of patients ([1]; ATRX wild type (14 patients)) [patients] | Non-response (SD + PD), share of patients ([1]; ATRX wild type (14 patients)) [%] | Objective response (PR), number of patients ([1]; ATRX wild type (14 patients)) [patients] | Objective response (PR), share of patients ([1]; ATRX wild type (14 patients)) [%] | PFS Hazard ratio (HR) ([1]; KDM5A wild type vs mutation, P value 0.0087) | patients with best efficacy evaluation being partial response (PR) ([1]; among 20 evaluated patients) [patients] | PFS, Median (95% CI) ([1]; patients with KDM5A gene mutation (n = 8)) | PFS, Median (95% CI) ([1]; patients with wild-type KDM5A gene (n = 12)) | Overall survival, quality of life, improvement of symptoms [2]
1 | COc1ccc2c(Oc3ccc4c(C(=O)Nc5ccccc5N)cccc4c3)ccnc2c1 [Chiauranib, N-(2-aminophenyl)-6-(7-methoxyquinolin-4-oxy)-1-naphthamide] | effective | 60 | 20 | 2 | 33.3 | 4 | 66.7 | 14 | 100.0 | 0 | 0 | 16.5 (2.03, 133.37) | 4 | 145 days and 145.0 (23.0, 145.0) days | 27.5 days and 27.5 (16.0, 61.0) days | 
2 | CC[C@@]1(O)C(=O)OCc2c1cc1n(c2=O)Cc2cc3c(CN(C)C)c(O)ccc3nc2-1 [topotecan] |  |  |  |  |  |  |  |  |  |  |  |  |  |  |  | significantly better
